Data on 13 compounds can be found in patent publication US7781437B2, “Substituted heterocyclic compounds with CXCR3 antagonist activity” (Schering Corporation, priority 2005, dated 2010).

In this experiment the target is T1, Human CXCR3 (N-delta 4) (Homo sapiens, UniProt P49682).
T1 construct: CD8 leader (N); Flag tag; expressed in transfected cells; membrane preparation
T1 sequence (P49682 5-368 limits assumed): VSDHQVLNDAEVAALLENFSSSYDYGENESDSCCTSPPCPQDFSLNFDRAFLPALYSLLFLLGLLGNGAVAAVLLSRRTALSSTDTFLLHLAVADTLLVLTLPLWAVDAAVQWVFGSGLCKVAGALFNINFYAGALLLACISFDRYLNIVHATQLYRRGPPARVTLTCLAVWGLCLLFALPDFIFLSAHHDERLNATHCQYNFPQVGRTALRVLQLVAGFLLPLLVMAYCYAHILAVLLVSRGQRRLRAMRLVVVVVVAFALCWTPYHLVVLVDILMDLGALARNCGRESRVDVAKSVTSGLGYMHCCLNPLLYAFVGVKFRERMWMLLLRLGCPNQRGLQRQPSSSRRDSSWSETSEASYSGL
Put plainly: Human CXCR3 (N-delta 4) Scintillation Proximity Assay (SPA), [125I] IP-10 binding to Ba/F3-hCXCR3 (N-delta 4) membranes. Conditions: [125I] IP-10 displacement. From the text: The inventive compounds can readily be evaluated to determine activity at The CXCR3 receptors by known methods, such as, for example, Development of Human CXCR3 (N-delta 4) Binding Assay.
Cloning and Expression of Human CXCR3 (N-delta 4):
The DNA encoding human CXCR3 was cloned by PCR using human genomic DNA (Promega, Madison, Wis.) as a template. The PCR primers were designed based on the published sequence of human orphan receptor GPR9 (1) with incorporated restriction sites, a Kozak consensus sequence, CD8 leader and Flag tag. The PCR product was subcloned into the mammalian expression vector pME18Sneo, a derivative of the SR-alpha expression vector (designated as pME18Sneo-hCXCR3 (N-delta 4).
IL-3-dependent mouse pro-B cells Ba/F3 were transfected by electroporation in 0.4 ml Dulbecco's PBS containing 4×10^6 cells with 20 μg of pME18Sneo-hCXCR3 (N-delta 4) plasmid DNA. Cells were pulsed at 400 Volts, 100 OHMs, 960 μFd. The transfected cells were under selection with 1 mg/ml G418 (Life Technologies, Gaithersburg, Md.). G418-resistant Ba/F3 clones were screened for CXCR3 expression by specific binding of [^125I] IP-10 (NEN Life Science Products, Boston, Mass.).
Preparation of Ba/F3-hCXCR3 (N-delta 4) membranes:
Ba/F3 cells expressing human CXCR3 (N-delta 4) were pelleted and resuspended in the lysis buffer containing 10 mM HEPES , pH 7.5 and Complete® protease inhibitors (1 tablet per 100 ml) (Boehringer Mannheim, Indianapolis, Ind.) at a cell density of 20×10^6 cells per ml. After 5 minutes incubation on ice, cells were transferred to 4639 cell disruption bomb (Parr Instrument, Moline, Ill.) and applied with 1,500 psi of nitrogen for 30 minutes on ice. Large cellular debris was removed by centrifugation at 1,000×g. Cell membrane in the supernatant was sedimented at 100,000×g. The membrane was resuspended in the lysis buffer supplemented with 10% sucrose and stored at −80° C. Total protein concentration of the membrane was determined by BCA method from Pierce (Rockford, Ill.).
Human CXCR3 (N-delta 4) Scintillation Proximitv Assay (SPA):
For each assay point, 2 μg of membrane was preincubated for 1 hr with 300 μg wheat germ agglutinin (WGA) coated SPA beads (Amersham, Arlington Heights, Ill.) in the binding buffer (50 mM HEPES, 1 mM CaCl2, 5 mM MgCl2, 125 mM NaCI, 0.002% NaN3, 1.0% BSA) at room temperature. The beads were spun down, washed once, resuspended in the binding buffer and transferred to a 96-well Isoplate (Wallac, Gaithersburg, Md.). 25 pM of [^125I] IP-10 with tested compounds in a series of titration were added to start the reaction. After 3 hr reaction at room temperature, the amount of [^125I] IP-10 bound to the SPA beads was determined with a Wallac 1450 Microbeta counter.
The Ki values for the various example compounds of the present invention are given in the afore-mentioned Table 1. From these values, it would be apparent to the skilled artisan that the compounds of the invention have excellent utility CXCR3 antagonists.
For orientation: Scintillation proximity formats need no separation of bound from free tracer.

Setting [1] is: specific Ki values (Table 2), read-out: Ki.

Read-outs that look alike come from different tables or passages of the source. Bounds are passed on as bounds.

Turning to `CC[C@H]1CN(c2c(Cl)nc(-c3nnc(N)o3)c(=O)n2C)CCN1C1CCN(Cc2ccc(Cl)cc2)CC1` [Compound Number 1], the Ki runs as follows: (read-out: Ki rating) below 25 nM; under setting [1], 1.9 nM.

Consider `CCNc1nnc(-c2nc(C)c(N3CCN(C4CCN(C(=O)c5ccc(Cl)nc5N)CC4)[C@@H](CC)C3)n(C)c2=O)o1` [Compound Number 2], for which the Ki by setting is: (read-out: Ki rating) below 25 nM; under setting [1], 2.6 nM.

For `CC[C@H]1CN(c2c(Cl)nc(-c3nnc(N)o3)c(=O)n2C)CCN1C1CCN(C(=O)c2ccc(Cl)nc2N)CC1` [Compound Number 3], the Ki reads like this: (read-out: Ki rating) below 25 nM; under setting [1], 7.5 nM.

In the case of `CC[C@H]1CN(c2c(Cl)nc(C(N)=O)c(=O)n2C)CCN1C1CCN(Cc2ccc(Cl)cc2F)CC1` [Compound Number 4], the Ki runs as follows: (read-out: Ki rating) below 25 nM; under setting [1], 8.3 nM.

Take `CC[C@H]1CN(c2c(Cl)nc(-c3nnc(N)o3)c(=O)n2C)CCN1C1CCN(Cc2ccc(Cl)nc2)CC1` [Compound Number 5]: the Ki (read-out: Ki rating) is below 25 nM and the Ki under setting [1] is 1.9 nM.

Take `CC[C@H]1CN(c2c(Cl)nc(-c3nnc(N)o3)c(=O)n2C)CCN1C1CCN(C(=O)c2ccc(Cl)cc2)CC1` [Compound Number 6]: the Ki (read-out: Ki rating) lay within 25 to 100 nM.

As for `CC[C@H]1CN(c2c(C)nc(C(N)=O)c(=O)n2C)CCN1C1CCN(Cc2ccc(Cl)cc2F)CC1` [Compound Number 7], the Ki (read-out: Ki rating) was in the range of 25 to 100 nM.

With `CC[C@H]1CN(c2c(Cl)nc(C(=O)OC)c(=O)n2C)CCN1C1CCN(Cc2ccc(Cl)cc2F)CC1` [Compound Number 8], the Ki (read-out: Ki rating) fell in the range of 25 to 100 nM.

With `CC[C@H]1CN(c2c(Cl)nc(-c3nnc(N)o3)c(=O)n2C)CCN1C1CCN(Cc2cc(F)c(Cl)cc2F)CC1` [Compound Number 9], the Ki (read-out: Ki rating) lay within 25 to 100 nM.

With `CC[C@H]1CN(c2c(Cl)nc(C(N)=O)c(=O)n2C)CCN1C1CCN(Cc2ccc(Cl)nc2N)CC1` [Compound Number 10], the Ki (read-out: Ki rating) was in the range of 25 to 100 nM.

With `CC[C@H]1CN(c2c(Cl)nc(-c3nnc(N)o3)c(=O)n2C)CCN1C1CCN(Cc2cc(F)c(F)cc2Cl)CC1` [Compound Number 11], the Ki (read-out: Ki rating) fell in the range of 25 to 100 nM.

In the case of `CC[C@H]1CN(c2cnc(C(N)=O)c(=O)n2C)CCN1C1CCN(Cc2ccc(Cl)nc2N)CC1` [Compound Number 12], the Ki (read-out: Ki rating) was above 100 nM.

Turning to `CC[C@H]1CN(c2nc(O)c(-c3nnc(N)o3)nc2Cl)CCN1C1CCN(Cc2ccc(Cl)cc2)CC1` [Compound Number 13], for the setting “read-out: Ki rating”, the Ki was above 100 nM.

Usually Ki stands for a measure of affinity in units of concentration, obtained from inhibition or displacement.
